Reference: patent publication US20230123334A1, “AMINO LIPID COMPOUND, PREPARATION METHOD THEREFOR, AND APPLICATION THEREOF” (SHENZHEN SHENXIN BIOTECHNOLOGY CO., LTD., priority 2020, published 2023)

System: HEK293 cells
Test: Preliminary screening as mRNA vectors, EGFP mRNA transfection of HEK293 cells
Type: cell-based
Details: EGFP mRNA 50 ng per well, 96-well plates; percentage of GFP fluorescent cells relative to total number of cells (Hoechst)
Procedure, shortened: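 HEK293 cells in DMEM plus 10% FBS transfected in 96-well format with 50 ng EGFP mRNA per well; Lipofectamine2000 served as positive control. Read-out is the percentage of GFP-fluorescent cells among total cells, counted by Hoechst nuclear stain.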

| SMILES | Absolute mRNA transfection efficiency in HEK293 cells [%] |
| --- | --- |
| CCCCCCCCCCCCCNc1nc(NCCCN2CCN(C)CC2)nc(SCCCCCCCCCCCC)n1 [Compound D9S12N13] | 1.0 |
| CCCCCCCCCCCCCCCNc1nc(NCCCN2CCN(C)CC2)nc(SCCCCCCCCCCCC)n1 [Compound D9S12N15] | 0.0 |
| CCCCCCCCCCCCCCCCNc1nc(NCCCN2CCN(C)CC2)nc(SCCCCCCCCCCCC)n1 [Compound D9S12N16] | 1.2 |
| CCCCCCCCCCCCCCCCCCNc1nc(NCCCN2CCN(C)CC2)nc(SCCCCCCCCCCCC)n1 [Compound D9S12N18] | 0.2 |
| CCCCCCCCCCCCCCSc1nc(NCCCCCC)nc(NCCCN2CCN(C)CC2)n1 [Compound D9S14N6] | 27.2 |
| CCCCCCCCCCCCCCSc1nc(NCCCCCCC)nc(NCCCN2CCN(C)CC2)n1 [Compound D9S14N7] | 50.1 |
| CCCCCCCCCCCCCCSc1nc(NCCCCCCCC)nc(NCCCN2CCN(C)CC2)n1 [Compound D9S14N8] | 24.8 |
| CCCCCCCCCCCCCCSc1nc(NCCCCCCCCC)nc(NCCCN2CCN(C)CC2)n1 [Compound D9S14N9] | 23.7 |
| CCCCCCCCCCCCCCSc1nc(NCCCCCCCCCCC)nc(NCCCN2CCN(C)CC2)n1 [Compound D9S14N11] | 15.6 |
| CCCCCCCCCCCCCCSc1nc(NCCCCCCCCCCCC)nc(NCCCN2CCN(C)CC2)n1 [Compound D9S14N12] | 8.0 |
| CCCCCCCCCCCCCCSc1nc(NCCCCCCCCCCCCC)nc(NCCCN2CCN(C)CC2)n1 [Compound D9S14N13] | 4.8 |
| CCCCCCCCCCCCCCCNc1nc(NCCCN2CCN(C)CC2)nc(SCCCCCCCCCCCCCC)n1 [Compound D9S14N15] | 0.5 |
| CCCCCCCCCCCCCCCCNc1nc(NCCCN2CCN(C)CC2)nc(SCCCCCCCCCCCCCC)n1 [Compound D9S14N16] | 0.8 |
| CCCCCCCCCCCCCCCCCCNc1nc(NCCCN2CCN(C)CC2)nc(SCCCCCCCCCCCCCC)n1 [Compound D9S14N18] | 0.3 |
| CCCCCCCCCCCCCCCSc1nc(NCCCCCC)nc(NCCCN2CCN(C)CC2)n1 [Compound D9S15N6] | 30.7 |
| CCCCCCCCCCCCCCCSc1nc(NCCCCCCC)nc(NCCCN2CCN(C)CC2)n1 [Compound D9S15N7] | 15.9 |
| CCCCCCCCCCCCCCCSc1nc(NCCCCCCCC)nc(NCCCN2CCN(C)CC2)n1 [Compound D9S15N8] | 10.8 |
| CCCCCCCCCCCCCCCSc1nc(NCCCCCCCCC)nc(NCCCN2CCN(C)CC2)n1 [Compound D9S15N9] | 18.5 |
| CCCCCCCCCCCCCCCSc1nc(NCCCCCCCCCCC)nc(NCCCN2CCN(C)CC2)n1 [Compound D9S15N11] | 9.2 |
| CCCCCCCCCCCCCCCSc1nc(NCCCCCCCCCCCC)nc(NCCCN2CCN(C)CC2)n1 [Compound D9S15N12] | 4.4 |
| CCCCCCCCCCCCCCCSc1nc(NCCCCCCCCCCCCC)nc(NCCCN2CCN(C)CC2)n1 [Compound D9S15N13] | 2.0 |

| SMILES | Absolute mRNA transfection efficiency in HEK293 cells [%] |
| --- | --- |
| CCCCCCCCCCCCCCCNc1nc(NCCCN2CCN(C)CC2)nc(SCCCCCCCCCCCCCCC)n1 [Compound D9S15N15] | 0.2 |
| CCCCCCCCCCCCCCCCNc1nc(NCCCN2CCN(C)CC2)nc(SCCCCCCCCCCCCCCC)n1 [Compound D9S15N16] | 2.7 |
| CCCCCCCCCCCCCCCCCCNc1nc(NCCCN2CCN(C)CC2)nc(SCCCCCCCCCCCCCCC)n1 [Compound D9S15N18] | 0.3 |
| CCCCCCCCCCCCCCCCSc1nc(NCCCCCC)nc(NCCCN2CCN(C)CC2)n1 [Compound D9S16N6] | 85.7 |
| CCCCCCCCCCCCCCCCSc1nc(NCCCCCCC)nc(NCCCN2CCN(C)CC2)n1 [Compound D9S16N7] | 97.9 |
| CCCCCCCCCCCCCCCCSc1nc(NCCCCCCCC)nc(NCCCN2CCN(C)CC2)n1 [Compound D9S16N8] | 71.3 |
| CCCCCCCCCCCCCCCCSc1nc(NCCCCCCCCC)nc(NCCCN2CCN(C)CC2)n1 [Compound D9S16N9] | 54.4 |
| CCCCCCCCCCCCCCCCSc1nc(NCCCCCCCCCCC)nc(NCCCN2CCN(C)CC2)n1 [Compound D9S16N11] | 68.4 |
| CCCCCCCCCCCCCCCCSc1nc(NCCCCCCCCCCCC)nc(NCCCN2CCN(C)CC2)n1 [Compound D9S16N12] | 12.4 |
| CCCCCCCCCCCCCCCCSc1nc(NCCCCCCCCCCCCC)nc(NCCCN2CCN(C)CC2)n1 [Compound D9S16N13] | 1.4 |
| CCCCCCCCCCCCCCCCSc1nc(NCCCCCCCCCCCCCCC)nc(NCCCN2CCN(C)CC2)n1 [Compound D9S16N15] | 0.2 |
| CCCCCCCCCCCCCCCCNc1nc(NCCCN2CCN(C)CC2)nc(SCCCCCCCCCCCCCCCC)n1 [Compound D9S16N16] | 0.1 |
| CCCCCCCCCCCCCCCCCCNc1nc(NCCCN2CCN(C)CC2)nc(SCCCCCCCCCCCCCCCC)n1 [Compound D9S16N18] | 0.1 |
| CCCCCCCCCCCCCCCCCCSc1nc(NCCCCCC)nc(NCCCN2CCN(C)CC2)n1 [Compound D9S18N6] | 55.4 |
| CCCCCCCCCCCCCCCCCCSc1nc(NCCCCCCC)nc(NCCCN2CCN(C)CC2)n1 [Compound D9S18N7] | 86.6 |
| CCCCCCCCCCCCCCCCCCSc1nc(NCCCCCCCC)nc(NCCCN2CCN(C)CC2)n1 [Compound D9S18N8] | 25.8 |
| CCCCCCCCCCCCCCCCCCSc1nc(NCCCCCCCCC)nc(NCCCN2CCN(C)CC2)n1 [Compound D9S18N9] | 7.6 |
| CCCCCCCCCCCCCCCCCCSc1nc(NCCCCCCCCCCC)nc(NCCCN2CCN(C)CC2)n1 [Compound D9S18N11] | 4.3 |
| CCCCCCCCCCCCCCCCCCSc1nc(NCCCCCCCCCCCC)nc(NCCCN2CCN(C)CC2)n1 [Compound D9S18N12] | 1.7 |
| CCCCCCCCCCCCCCCCCCSc1nc(NCCCCCCCCCCCCC)nc(NCCCN2CCN(C)CC2)n1 [Compound D9S18N13] | 0.0 |
| CCCCCCCCCCCCCCCCCCSc1nc(NCCCCCCCCCCCCCCC)nc(NCCCN2CCN(C)CC2)n1 [Compound D9S18N15] | 0.0 |
